# Test results as given in PMC12064818, “A general assay platform to study protein pharmacology using ligand-dependent structural dynamics” (Nature Communications, 2025).
# pEC50, pIC50: −log10 of the molar value. Structures can show the parent of a compound that is named as a salt. Where two headings read alike, the source gives them in different places.
# How the values were obtained:
# [1] = molecular target: T1, ABL1-N-HiBiT kinase domain (Homo sapiens, UniProt P00519); assay: SDR assay, ABL1-N-HiBiT; conditions: for ABL1 SDR pSDR50: heatmap data, 128 kinase inhibitors; for pEC50: read-out: SDR Ave SDR50, average, unit inferred
# T1 sequence (P00519 233-500): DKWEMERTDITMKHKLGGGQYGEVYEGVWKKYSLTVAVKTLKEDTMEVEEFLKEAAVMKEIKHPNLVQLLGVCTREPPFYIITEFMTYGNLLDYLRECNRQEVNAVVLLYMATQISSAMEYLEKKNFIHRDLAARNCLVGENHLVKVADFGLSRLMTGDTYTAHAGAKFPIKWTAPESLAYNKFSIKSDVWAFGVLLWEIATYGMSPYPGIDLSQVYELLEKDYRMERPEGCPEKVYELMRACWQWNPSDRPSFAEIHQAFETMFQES
# ABL1 = conditions: cited from earlier work
# PKA-N-HiBiT [2] = molecular target: T2, PKA-N-HiBiT (Homo sapiens, UniProt P17612); assay: SDR assay, PKA-N-HiBiT; conditions: for SDR Ave Max Response: average maximal response
# PKA = conditions: annotation yes/no for kinase library compound; source not given; cited from earlier work
# PKA-N-HiBiT [3] = molecular target: T2, PKA-N-HiBiT; assay: PKA peptide phosphorylation, Kinase-Glo Plus (KGP) assay, PKA-N-HiBiT; assay type: biochemical; set-up: containing amino acids Gly2-Phe351; His10 (N); made in house; host or cells: E. coli BL21(DE3); conditions: for pIC50: PKA-N-HiBiT qHTS, Kinase-Glo Plus, average, read-out: PKA KGP Ave IC50; for IC50: Figure 2i correlation plot data, read-out: ABL1 Enz Assay Mean (PKA KGP assay pIC50) (converted); for Efficacy / Hill Coef / Max Resp / CC-v2: KGP Rep 1; for CC-v2: curve class
# Procedure: (§1) Kinase activity was measured by ATP depletion using the Kinase-Glo Plus (KGP) assay kit (Promega) in 1536-well plate format. […] Controls were added with a Mosquito dispenser (STP LabTech) while compounds were transferred with a pintool to each plate as described in Supplementary Data 8 and incubated for 30 min at ambient temperature. […] Following a 10 min incubation, KGP luminescence was measured with a ViewLux plate reader with 1 sec exposure, with medium to high gain setting, slow speed and 2x binning. Data were normalized to the average of no enzyme control column as 100% kinase inhibition and DMSO control column as 100% phosphorylation reaction progress. See Supplementary Table 5 for additional details.
# (§2) Protocol for Abelson kinase (ABL1) and protein kinase A (PKA) peptide phosphorylation assays
# (§3) Supplementary Table 5: Protocol for Abelson kinase (ABL1) and protein kinase A (PKA) peptide phosphorylation assays Sequence Param eter Value Description
# (§4) 3 Incubation 30 m in Incubate enzym e + com pounds at am bient tem p for 30 m in, protected from light […]
# (§5) protocol; dispensed with BioRaptr 2
# [4] = molecular target: T1, ABL1-N-HiBiT kinase domain; assay: ABL1 peptide phosphorylation, Kinase-Glo Plus (KGP) assay, ABL1-N-HiBiT; assay type: biochemical; set-up: containing amino acid residues Asp233-Ser500; His10 (N); made in house; host or cells: E. coli BL21(DE3); conditions: for ABL1 KGP pIC50: ABL1, Kinase-Glo Plus (KGP), heatmap data, 128 kinase inhibitors; for pIC50: ABL1-N-HiBiT qHTS, average, unit inferred, read-out: ABL1 KGP Ave IC50; for Efficacy / Hill Coef / Max Resp / CC-v2: KGP Rep 1; for CC-v2: curve class
# Procedure: as §1, §2, §3, §4, §5
# [5] = ABL1-N-HiBiT qHTS, average maximal SDR response
# [6] = read-out: PKA SDR Ave SDR50, PKA-N-HiBiT qHTS, SDR assay, average
Compound,"SDR Ave Max Response [1, 5]",Annotated ABL1 activity (ABL1),"SDR Ave Max Response (PKA-N-HiBiT [2]; PKA-N-HiBiT qHTS, SDR assay)",Annotated PKA activity (PKA),ABL1 SDR pSDR50 [1],pEC50 ([1]; ABL1-N-HiBiT qHTS),pEC50 (PKA-N-HiBiT [2]; [6]),further results
CC(C)(C)n1nc(-c2cccc3ccccc23)c2c(N)ncnc21 [1-Naphthyl PP1],61.87,yes,10.40,no,,,,
Cc1n[nH]c2ccc(-c3cncc(OC[C@@H](N)Cc4c[nH]c5ccccc45)c3)cc12 [A-443654],-27.36,,40.10,yes,5.32,5.25,6.73,pIC50 (PKA-N-HiBiT [3]): 5.69
O=C(Nc1c[nH]nc1-c1nc2ccc(CN3CCOCC3)cc2[nH]1)NC1CC1 [AT9283],,,67.79,yes,,,7.34,pIC50 (PKA-N-HiBiT [3]): 6.06; pEC50 (PKA-N-HiBiT [2]): 7.36
COc1cc(N2CCOCC2)ccc1Nc1ncc(Cl)c(Nc2ccccc2NS(C)(=O)=O)n1 [CZC 54252 HCl],69.42,,40.07,no,5.09,5.02,5.80,ABL1 KGP pIC50 [4]: 5.38; pIC50 [4]: 5.00; IC50 (PKA-N-HiBiT [3]): 33.9 µM; pIC50 (PKA-N-HiBiT [3]): 4.30; pEC50 (PKA-N-HiBiT [2]): 5.87
Cn1c(=O)c2c(ncn2C)n(C)c1=O [Caffeine],3.59,no,-17.81,no,,,,Efficacy (PKA-N-HiBiT [3]): -14.65; Hill Coef (PKA-N-HiBiT [3]): 2.85; Max Resp (PKA-N-HiBiT [3]): 7.79; CC-v2 (PKA-N-HiBiT [3]): 4
COc1cc2c(Oc3ccc4[nH]c(C)cc4c3F)ncnc2cc1OCCCN1CCCC1 [Cediranib],,yes,5.41,no,,,,SDR Ave Max Response [1]: 72.22
c1cc(-c2cc(C3CCNCC3)[nH]n2)ccn1 [ETP 45835 2HCl],-32.09,,25.66,no,5.02,5.02,4.71,IC50 (PKA-N-HiBiT [3]): 83.2 µM; pEC50 (PKA-N-HiBiT [2]): 5.08
Cc1cc(O)c2c(c1)C(=O)c1cc(O)cc(O)c1C2=O [Emodin],-3.42,,-14.68,no,,,4.82,Efficacy [4]: 23.75; Hill Coef [4]: 1.10; Max Resp [4]: 17.37; CC-v2 [4]: 4; Efficacy (PKA-N-HiBiT [3]): -14.49; Hill Coef (PKA-N-HiBiT [3]): 3.19; Max Resp (PKA-N-HiBiT [3]): 8.59; CC-v2 (PKA-N-HiBiT [3]): 4; pEC50 (PKA-N-HiBiT [2]): 4.85
COc1ccc(S(=O)(=O)N(C(C)=O)c2ccccc2/C=C/c2cc[n+]([O-])cc2)cc1 [HMN-214],8.52,no,5.93,no,,,,
COc1cc(N2CCN(C)CC2)ccc1Nc1nc(N)c(C(=O)c2c(Cl)cccc2Cl)s1 [HMSL10089],,no,-4.43,no,,,,SDR Ave Max Response [1]: 0.77
O=[N+]([O-])O[C@H]1CO[C@H]2[C@@H]1OC[C@H]2O[N+](=O)[O-] [Isosorbide dinitrate],6.72,no,6.02,no,,,,
C/C(O)=C(\C#N)C(=O)Nc1cc(Br)ccc1Br [LFM-A13],-82.68,no,-81.79,no,5.44,5.43,5.38,PKA SDR Assay Mean (pSDR50) (PKA-N-HiBiT [2]; without ATP): 5.40
CCN(CC)CCOc1ccc(Nc2ncc3cc(-c4c(Cl)cccc4Cl)c(=O)n(C)c3n2)cc1.Cl.Cl.O [PD-166285 hydrate],51.60,yes,-22.35,no,,,,
Nc1ncnc2c1c(-c1cnc3[nH]ccc3c1)nn2C1CCCC1 [PP-121],,yes,6.39,yes,,,,
COc1ccccc1-c1c[nH]c2ncc(-c3cncc(C(=O)N(C)C)c3)cc12 [PPY A],88.01,yes,11.97,no,8.52,8.52,,ABL1 KGP pIC50 [4]: 7.53; pIC50 [4]: 7.47
N[C@H]1CC[C@H](Nc2nc(Nc3ccc(C(=O)N4CCCCC4)cc3)c3ncn(-c4cccc(F)c4)c3n2)CC1 [Purfalcamine],91.87,,23.75,no,6.61,6.61,,ABL1 KGP pIC50 [4]: 5.42; pIC50 [4]: 5.41; IC50 (PKA-N-HiBiT [3]): 22.9 µM; pIC50 (PKA-N-HiBiT [3]): 4.52; pEC50 (PKA-N-HiBiT [2]): 3.93
O=c1c(O)c(-c2ccc(O)c(O)c2)oc2cc(O)cc(O)c12 [Quercetin],48.80,,-5.00,no,,5.04,,pIC50 [4]: 5.23; Efficacy (PKA-N-HiBiT [3]): -15.69; Hill Coef (PKA-N-HiBiT [3]): 1.22; Max Resp (PKA-N-HiBiT [3]): 9.03; CC-v2 (PKA-N-HiBiT [3]): 4
CCN1/C(=C/C(C)=O)Sc2ccc(OC)cc21 [TG003],9.57,,6.70,no,,,,Efficacy [4]: 49.18; Hill Coef [4]: 4.96; Max Resp [4]: 37.84; CC-v2 [4]: 3; Efficacy (PKA-N-HiBiT [3]): 0.00; Max Resp (PKA-N-HiBiT [3]): 8.95; CC-v2 (PKA-N-HiBiT [3]): 4
COc1cc2c(N3CCN(C(=O)Nc4ccc(OC(C)C)cc4)CC3)ncnc2cc1OCCCN1CCCCC1 [Tandutinib],,no,7.68,no,,,,SDR Ave Max Response [1]: 63.54
N#Cc1cn([C@@H]2O[C@H](CO)[C@@H](O)[C@H]2O)c2ncnc(N)c12 [Toyocamycin],72.44,no,-0.53,no,4.93,4.89,,
I-BET762,6.74,no,,,,,,
PF-477736,81.41,,33.34,no,6.38,6.36,5.89,ABL1 KGP pIC50 [4]: 6.01; pIC50 [4]: 5.98; pIC50 (PKA-N-HiBiT [3]): 5.27
PF-562271 HCl,70.73,,40.60,no,4.94,4.92,5.34,pIC50 [4]: 5.23; pIC50 (PKA-N-HiBiT [3]): 4.34
